Experimental data from US10961215B2, “N-aryl and N-heteroaryl piperidine derivatives as liver X receptor beta agonists, compositions, and their use” (Merck Sharp & Dohme Corp., priority 2016, dated 2021).

Columns and labels:
[1] = molecular target: T1, GST tagged LXRalpha LBD (ligand binding domain) (Homo sapiens, UniProt Q13133); assay: LanthaScreen TR-FRET Liver X Receptor Coactivator Assay, LXR alpha-LBD (co-activator recruitment; IP and % Emax relative to T0901317); format: biochemical; conditions: for LXR alpha IP (nM) / EC50: Inflection Point of co-activator recruitment, LXR alpha-LBD, TR-FRET; for Emax: read-out: LXR alpha actiivty at max dose (%)
T1 construct: purchased Invitrogen pv4655
T1 sequence (Q13133 209-447 limits assumed): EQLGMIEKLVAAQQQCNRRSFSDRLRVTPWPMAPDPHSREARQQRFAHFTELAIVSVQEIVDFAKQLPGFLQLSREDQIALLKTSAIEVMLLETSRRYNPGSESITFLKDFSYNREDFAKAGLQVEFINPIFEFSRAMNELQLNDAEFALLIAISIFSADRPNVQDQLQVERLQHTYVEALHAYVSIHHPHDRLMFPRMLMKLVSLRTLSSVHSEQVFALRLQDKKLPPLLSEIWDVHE
Procedure, shortened: (§1)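 Compounds were first combined with the GST-LBD protein. A premixed fluorescein coactivator peptide and terbium-labelled anti-GST antibody was then added. Plates were incubated at room temperature and TR-FRET measured.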

[2] = molecular target: T2, GST tagged LXRbeta LBD (ligand binding domain) (Homo sapiens, UniProt P55055); assay: LanthaScreen TR-FRET Liver X Receptor Coactivator Assay, LXR beta-LBD (co-activator recruitment; IP and % Emax relative to T0901317); format: biochemical; conditions: for EC50: Inflection Point of co-activator recruitment, LXR beta-LBD, TR-FRET; for Emax: read-out: LXR beta actiivty at max dose (%)
T2 construct: purchased Invitrogen pv4658.pps
T2 sequence (P55055 222-460 limits assumed): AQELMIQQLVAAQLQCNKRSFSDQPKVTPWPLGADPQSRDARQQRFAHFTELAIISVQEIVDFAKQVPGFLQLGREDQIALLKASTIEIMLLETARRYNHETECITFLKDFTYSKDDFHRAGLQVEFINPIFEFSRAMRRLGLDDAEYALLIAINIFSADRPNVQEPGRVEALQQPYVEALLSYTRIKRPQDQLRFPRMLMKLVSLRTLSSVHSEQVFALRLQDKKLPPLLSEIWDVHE
Procedure, shortened: as §1

[3] = efficacy at max dose in relation to reference T0901317, LXR alpha-LBD
[4] = efficacy at max dose in relation to reference T0901317, LXR beta-LBD

LXR alpha IP (nM) [1]	Emax [1, 3]	EC50 [2]	Emax [2, 4]	EC50 [1]	LXR alpha actiivty at max dose (%) [1, 3]	LXR beta actiivty at max dose (%) [2, 4]	SMILES
No IP	16%	561 nM	72%	–	–	–	CN(C)C(=O)c1ccc(N2CCC(CCCNC(=O)C(C)(C)c3ccccc3)CC2)cc1Cl [Example 5-4, 2-chloro-N,N-dimethyl-4-(4-(3-(2-methyl-2-phenylpropanamido)propyl)piperidin-1-yl)benzamide]
No IP	0%	1510 nM	39%	–	–	–	CN(C)C(=O)c1ccc(N2CCC(CCCNC(=O)OCc3ccccc3)CC2)nc1Cl [Example 5-5, benzyl 3-(1-(6-chloro-5-(dimethylcarbamoyl)pyridin-2-yl)piperidin-4-yl)propyl-carbamate]
–	23%	267 nM	105%	3.7 µM	–	–	CN(C)C(=O)c1ccc(N2CCC(CCCNC(=O)C(O)(c3ccccc3)C(F)(F)F)CC2)nc1Cl (stereo not drawn) [Example 5-6, 2-chloro-N,N-dimethyl-6-(4-(3-(3,3,3-trifluoro-2-hydroxy-2-phenylpropanamido)propyl)piperidin-1-yl)nicotinamide]
No IP	27%	636 nM	106%	–	–	–	CC(C)C(O)(C(=O)NCCCC1CCN(c2ccc(C(=O)N(C)C)c(Cl)n2)CC1)C(F)(F)F (stereo not drawn) [Example 5-7, 2-chloro-6-(4-(3-(2-hydroxy-3-methyl-2-(trifluoromethyl)butanamido)propyl)piperidin-1-yl)-N,N-dimethylnicotinamide]
–	28%	105 nM	104%	5.14 µM	–	–	CN(C)C(=O)c1ccc(N2CCC(CCCNC(=O)[C@](O)(c3ccccc3)C(F)(F)F)CC2)nc1Cl [Example 5-8, (R)-2-chloro-N,N-dimethyl-6-(4-(3-(3,3,3-trifluoro-2-hydroxy-2-phenylpropanamido)propyl)piperidin-1-yl) nicotinamide]
–	9%	165 nM	101%	2.28 µM	–	–	CN(C)C(=O)c1ccc(N2CCC(CCCNC(=O)[C@@](O)(c3ccccc3)C(F)(F)F)CC2)nc1Cl [Example 5-9, (S)-2-chloro-N,N-dimethyl-6-(4-(3-(3,3,3-trifluoro-2-hydroxy-2-phenylpropanamido)propyl)piperidin-1-yl) nicotinamide]
No IP	3%	343 nM	58%	–	–	–	CCOc1cccc([C@@](O)(C(=O)NCCCC2CCN(c3ccc(C(=O)N(C)C)c(Cl)n3)CC2)C(F)(F)F)c1 [Example 5-10, (R)-2-chloro-6-(4-(3-(2-(3-ethoxyphenyl)-3,3,3-trifluoro-2-hydroxy-propanamido)propyl)piperidin-1-yl)-N,N-dimethylnicotinamide]
No IP	-8%	349 nM	46%	–	–	–	CN(C)C(=O)c1ccc(N2CCC(CCCNC(=O)[C@](O)(c3cccc(OC4CC4)c3)C(F)(F)F)CC2)nc1Cl [Example 5-11, (R)-2-chloro-6-(4-(3-(2-(3-cyclopropoxyphenyl)-3,3,3-trifluoro-2-hydroxypropanamido)propyl)piperidin-1-yl)-N,N-dimethylnicotinamide]
–	40%	1010 nM	40%	13.2 µM	–	–	CN(C)C(=O)c1ccc(N2CCC(CCCNC(=O)[C@](O)(c3cccc(OC(F)(F)F)c3)C(F)(F)F)CC2)nc1Cl [Example 5-12, (R)-2-chloro-N,N-dimethyl-6-(4-(3-(3,3,3-trifluoro-2-hydroxy-2-(3-(trifluoromethoxy)phenyl)propanamido)propyl)piperidin-1-yl)nicotinamide]
No IP	9%	187 nM	54%	–	–	–	CN(C)C(=O)c1ccc(N2CCC(CCCNC(=O)[C@](O)(c3cc(Cl)cc(Cl)c3)C(F)(F)F)CC2)nc1Cl [Example 5-13, (R)-2-chloro-6-(4-(3-(2-(3,5-dichlorophenyl)-3,3,3-trifluoro-2-hydroxypropanamido)propyl)piperidin-1-yl)-N,N-dimethylnicotinamide]
No IP	0%	207 nM	44%	–	–	–	CN(C)C(=O)c1ccc(N2CCC(CCCNC(=O)[C@](O)(c3cccc(C4CC4)c3)C(F)(F)F)CC2)nc1Cl [Example 5-14, (R)-2-chloro-6-(4-(3-(2-(3-cyclopropylphenyl)-3,3,3-trifluoro-2-hydroxy-propanamido)propyl)piperidin-1-yl)-N,N-dimethylnicotinamide]
–	22%	215 nM	83%	2.73 µM	–	–	CN(C)C(=O)c1ccc(N2CCC(CCCNC(=O)C3(c4ccccc4)CCCC3)CC2)nc1Cl [Example 5-15, 2-chloro-N,N-dimethyl-6-(4-(3-(1-phenylcyclopentane-carboxamido)propyl)piperidin-1-yl)nicotinamide]
–	26%	235 nM	83%	5.22 µM	–	–	CN(C)C(=O)c1ccc(N2CCC(CCCNC(=O)C3(c4ccccc4)CCC3)CC2)nc1Cl [Example 5-16, 2-chloro-N,N-dimethyl-6-(4-(3-(1-phenylcyclobutane-carboxamido)propyl)piperidin-1-yl)nicotinamide]
No IP	0%	401 nM	43%	–	–	–	CCc1cccc([C@@](O)(C(=O)NCCCC2CCN(c3ccc(C(=O)N(C)C)c(Cl)n3)CC2)C(F)(F)F)c1 [Example 5-17, (R)-2-chloro-6-(4-(3-(2-(3-ethylphenyl)-3,3,3-trifluoro-2-hydroxypropanamido)propyl)piperidin-1-yl)-N,N-dimethylnicotinamide]
No IP	7%	990 nM	66%	–	–	–	CN(C)C(=O)c1ccc(N2CCC(CCCNC(=O)[C@@]3(c4ccccc4)CCCO3)CC2)nc1Cl [Example 5-18, (S)-2-chloro-N,N-dimethyl-6-(4-(3-(2-phenyltetrahydrofuran-2-carboxamido)propyl)piperidin-1-yl)nicotinamide]
–	36%	160 nM	104%	2.34 µM	–	–	CN(C)C(=O)c1ccc(N2CCC(CCCNC(=O)[C@]3(c4ccccc4)CCCO3)CC2)nc1Cl [Example 5-19, (R)-2-chloro-N,N-dimethyl-6-(4-(3-(2-phenyltetrahydrofuran-2-carboxamido)propyl)piperidin-1-yl)nicotinamide]
No IP	17%	230 nM	69%	–	–	–	COc1cccc([C@@](O)(C(=O)NCCCC2CCN(c3ccc(C(=O)N(C)C)c(Cl)n3)CC2)C(F)(F)F)c1.O=C(O)C(F)(F)F [Example 5-20, (R)-2-chloro-N,N-dimethyl-6-(4-(3-(3,3,3-trifluoro-2-hydroxy-2-(3-methoxyphenyl)propanamido)propyl)piperidin-1-yl)nicotinamide]
–	36%	314 nM	91%	8.72 µM	–	–	CN(C)C(=O)c1ccc(N2CCC(CCCNC(=O)[C@@](O)(c3cccc(O)c3)C(F)(F)F)CC2)nc1Cl [Example 5-21, (S)-2-chloro-N,N-dimethyl-6-(4-(3-(3,3,3-trifluoro-2-hydroxy-2-(3-hydroxyphenyl)propanamido)propyl)piperidin-1-yl)nicotinamide]
–	31%	1190 nM	101%	10.3 µM	–	–	CN(C)C(=O)c1ccc(N2CCC(CCCNC(=O)[C@](O)(c3cccc(O)c3)C(F)(F)F)CC2)nc1Cl [Example 5-22, (R)-2-chloro-N,N-dimethyl-6-(4-(3-(3,3,3-trifluoro-2-hydroxy-2-(3-hydroxyphenyl)propanamido)propyl)piperidin-1-yl)nicotinamide]
No IP	–	275 nM	–	–	16%	73%	COc1cccc([C@@](O)(C(=O)NCCCC2CCN(c3ccc(C(=O)N(C)C)c(Cl)n3)CC2)C(F)(F)F)c1 [Example 5-23, (R)-2-chloro-N,N-dimethyl-6-(4-(3-(3,3,3-trifluoro-2-hydroxy-2-(3-methoxyphenyl)propanamido)propyl)piperidin-1-yl) nicotinamide]
No IP	0%	379 nM	25%	–	–	–	COc1cccc([C@@](O)(C(=O)N[C@@H](C)CCC2CCN(c3ccc(C(=O)N(C)C)c(Cl)n3)CC2)C(F)(F)F)c1 [Example 6-1, 2-chloro-N,N-dimethyl-6-(4-((S)-3-((R)-3,3,3-trifluoro-2-hydroxy-2-(3-methoxyphenyl)propanamido)butyl)piperidin-1-yl)nicotinamide]
